The results in this text go back to patent US20040167217A1, “Neuroprotective effects of polyphenolic compounds” (priority 2003, published 2004).

One assay deals with cortical neurons. Description: Oligonucleosome formation in cortical neurons exposed to β-amyloid peptide (1-40). The assay is classed as cell-based, rat. Particulars: for apoptosis (oligonucleosome formation) induced by β-amyloid peptide (1-40): 20 μM β-amyloid peptide (1-40), parallel treatment. On the procedure: Primary cultures of cortical neurons and cerebellar granule cells were prepared. In brief, cortical neurons were prepared from fetal brain from 17-day pregnant rat and cerebellar granule cells from 8-day old rats. Brain tissues were dissociated through trypsinization in 0.025% trypsin solution and trituration. Dissociated cells were collected through centrifugation and resuspended in standard medium containing: basal Eagle's medium containing 10% fetal bovine serum (FCS), 2 mM glutamine, genatmycin 0.05 mg/ml, and 25 mM KCI. Cells were plated at a density of 1.8×10^6 onto 35-mm dishes coated with 10 micrograms/ml ply-L-lysine.
An inhibitor of HO-1 activity may be used to determine whether or not the effects of the polyphenolic compounds or analogs thereof are induced through the heme oxygenase signaling pathway. To understand the relevance of the induction of the stress protein HO-1 on the neuroprotective effects afforded by curcumin we treated cortical neuron exposed to β-amyloid with curcumin ([…]) alone or in the presence of tinprotoporphirine IX (SnPP) 40 μM, a specific inhibitor of HO-1 activity. The same treatment was performed in cortical neurons exposed to GOX-induced cellular damage.

Assay [1] has as its system HO-1. The experiment in a line: HO-1 protein expression, Western blot, cortical neurons. The assay is classed as cell-based, rat. How it is done:
HO-1 and hsp70 protein levels were assessed by Western immunoblot technique using a polyclonal rabbit anti-HO-1 antibody (Stressgen; Victoria, Canada), and a polyclonal rabbit hsp70 antibody. Briefly, an equal amount of proteins (30 μg) for each sample was separated by SDS-polyacrylamide gel electrophoresis and transferred to nitrocellulose membranes, and the non-specific antibodies were blocked with 3% non-fat dried milk in PBS. Membranes were then probed with a polyclonal rabbit anti HO-1 antibody (Stressgen) (1:1000 dilution in Tris-buffered saline, pH 7,4) or with a monoclonal rabbit anti-Hsp72 antibody (Amersham Pharmacia Biotechnology) (1:1000 dilution in Tris-buffered saline, pH 7,4), that recognizes only the Hsp 70 inducible isoform. Blots were then visualized using an amplified alkaline phosphate kit from Sigma.

The test system of assay [2] is Male Wistar rats. The experiment in a line: Lethality after intracerebroventricular T-BuOOH. The assay is classed as in vivo, rat. On the procedure: (§1) Male Wistar rats, weighing 140-180 g, were used for all experiments. Ten animals per experimental group were pre-administrated with curcumin, suitably suspended in distilled water, at the dose of 50 mg/kg per day, through oral intubation, for 7 days, before an intracerebroventricular injection of T-butylhydroperoxide (T-BuOOH) 2 μl of a 70% solution of phosphate buffered saline (PBS)^16. Lethality was assessed after administration of T-BuOOH at time points: 0, 2, 6, 12, and 24 h, and was expressed as the percentage of survival relative to the lethality observed in T-BuOOH plus Tween/saline vehicle (control) treated animals (FIG. 11A). After 30h the surviving animals were sacrificed and their brains quickly removed to investigate lipid peroxide formation as an index of oxidative challenge in neurons.
(§2) Male Wistar rats, weighing 140-180 g, were used for all experiments. […] Lethality was assessed after administration of T-BuOOH at time points: 0, 2, 6, 12, and 24 h, and was expressed as the percentage of survival relative to the lethality observed in T-BuOOH plus Tween/saline vehicle (control) treated animals (FIG. 12A). […]

In assay [3] the test system is Male Wistar rats. The experiment in a line: Brain lipid peroxides (FOX2) after T-BuOOH. The assay is classed as in vivo, rat. On the procedure:
as §1, with “After 30h the surviving animals were sacrificed and their brains quickly removed to investigate lipid peroxide formation as an index of oxidative challenge in neurons.” left out
Briefly, brain areas were dissected and homogenized in ice cold 0.1 M, pH 7.5 phosphate buffer (final vol 1.1 ml). […] Hydroperoxides were quantitated by the FOX2 method^17. […] After centrifugation at 12,000×g for 5 min to remove any flocculated material, absorbance of the supernatant was then read at 560 nm.
as §2

Assay [4] deals with HO-1. Description: HO-1 protein expression, Western blot, astrocytes. Type of assay: cell-based. On the procedure:
Type 1 astrocytes (DI TNC1) were purchased from the American Type Culture Collection (Manassas, VA) and cultured in Dulbecco's modified Eagle's medium containing 4.5 g/l glucose, 2 mM glutamine, 100 units/ ml penicillin, and 0.1 mg/ml streptomycin and supplemented with 10% fetal bovine serum. Cells were grown in 75-cm^2 flasks and maintained at 37° C. in a humidified atmosphere of air and 5% CO2. Confluent cells were exposed to various concentrations of curcumin, CAPE, or Curcumin-95. After each treatment (6 or 24 h), cells were harvested for the determination of heme oxygenase activity, HO-1 protein expression, and intracellular glutathione. Astrocytes growing in 24 wells were exposed to polyphenolic compounds, and cell viability was determined at 24 h. After treatment with curcumin, or CAPE, samples of astrocytes were also analyzed for HO-1 protein expression using a Western immunoblot technique described previously^18,19. Briefly, an equal amount of proteins (30 μg) for each sample was separated by SDS-polyacrylamide gel electrophoresis and transferred overnight to nitrocellulose membranes, and the non-specific binding of antibodies was blocked with 3% non-fat dried milk in PBS. Membranes were then probed with a polyclonal rabbit anti-HO-1 antibody (Stressgen) (1:1000 dilution in Tris-buffered saline, pH 7.4) for 2 h at room temperature. After three washes with PBS, blots were visualized using an amplified alkaline phosphatase kit from Sigma (Extra-3A), and the relative density of bands was analyzed by the use of an imaging densitometer (model GS-700; Bio-Rad, Herts, UK). Blots shown are representative of three independent experiments.
Background: Immunoblotting shows a protein as a band on a membrane.

Entries after “also recorded” stand apart in the source; their conditions may differ.

As to `O=C(/C=C/c1ccc(O)c(O)c1)OCCc1ccccc1` [CAPE, Caffeic acid phenethyl ester], the “apoptosis (oligonucleosome formation) induced by β-amyloid peptide (1-40)” value in the assay with cortical neurons is “strong dose-dependent anti-apoptotic effect”. In the assay with cortical neurons (β-amyloid), the “concentration most effective in protecting from apoptosis” value stood at 25 µM. The “HO-1 protein expression / HO-1 induction” value in the assay with HO-1 [1] is “strongly induce HO-1”. Moreover, the “protection against T-BuOOH induced lethality” value with Male Wistar rats [2] (20 mg/kg per day oral for 7 days before i.c.v. T-BuOOH) is reported as “marked protection”. For the same compound, in the assay on Male Wistar rats [3] (20 mg/kg per day oral for 7 days before T-BuOOH), the “lipid peroxides in brain areas (oxidative damage)” value is “prevented oxidative damages to neuronal tissues”. In the assay with HO-1 [4], the “concentration of maximal HO-1 protein expression” value came to 30 µM. Also, the HO-1 protein levels entry in the assay with HO-1 [4] (low concentrations 15-50 μM) is listed as “substantial increase”.

With `COc1cc(C=CC(=O)CC(=O)C=Cc2ccc(O)c(OC)c2)ccc1O` [curcumin, 1,7-bis[4-Hydroxy-3-methoxyphenyl]-1,6-heptadiene-3,5-dione], the “apoptosis (oligonucleosome formation) induced by β-amyloid peptide (1-40)” value in the assay on cortical neurons is given as “able to overcome much of the cellular damage caused by β-amyloid; also recorded: dramatically protect the cells against apoptosis”. Besides, the “apoptosis induced by β-amyloid in the presence of HO-1 inhibitor SnPP” value in the assay with cortical neurons (curcumin plus SnPP 40 μM) is “only able to partially reduce the apoptotic effects”. Moreover, the “HO-1 protein expression / HO-1 induction” value in the assay on HO-1 [1] is “directly correlated with HO-1 protein levels”. In addition, the “animals that died after T-BuOOH” value with Male Wistar rats [2] (50 mg/kg per day oral for 7 days before i.c.v. T-BuOOH, over 24 h (T-BuOOH alone 60%)) amounted to 20%. The “lipid peroxides in brain areas (oxidative damage)” value with Male Wistar rats [3] (50 mg/kg per day oral for 7 days before T-BuOOH, cortex, striatum, hippocampus, cerebellum) is listed as “prevented the oxidative damages to neuronal tissues”. The HO-1 protein expression entry in the assay on HO-1 [4] (50-100 μM) is given as “failed to increase HO-1 expression”; in the assay with HO-1 [4] (6 h, 15 and 30 μM), “marked up-regulation of HO-1 protein”; in the assay on HO-1 [4] (24 h after treatment), “over-expression of HO-1 was also found”.
